In patent EP2872621B1, “METHOD FOR THE GENERATION OF NON-TRANSFORMED MACROPHAGE CELL LINES” (Max-Planck-Gesellschaft zur Förderung der Wissenschaften …, priority 2012, dated 2014):

How the values were obtained:
BMMs = test: Cytokine response of BMMs to microbial stimuli (ELISA, bioassay); type: cell-based, mouse
Description: BMMs (Bone Marrow derived Macrophages) and GM-CSF induced BMDCs were generated as described (Fejer et al., 2008). The purity of BMMs was higher than 98%, of BMDCs approximately 80%. SP37A3 cells were originally grown in RPMI in the presence of GM-CSF and M-CSF as described (Bros et al., 2007). Cells growing in media with […] GM-CSF but without M-CSF were selected from the original cells and used further in the studies shown here.
(§1) Sarcin assay, measuring Ad endosomal escape was done as described previously (Schreiner et al., 2012). […] Non-endotoxin ligands were substantially LPS-free (less than or equal to 1 pg LPS/1011 viral particles) as determined by the Limulus amebocyte lysate test from Pyroquant. […]
Detection of secreted cytokines, surface antigens, intracellular proteins and enzymatic activity The following cytokines were detected with ELISA using commercially available antibody pairs or kits: mouse IL-6 (BD Bioscience), IL-1α (eBioscience), IL-1β (eBioscience) and IL-10 (eBioscience), human IL-6 (R&D Systems), IL-1α (eBioLegend) and IL-10 (BD Bioscience). IFN-αβ and TNF-α activities were measured with bioassays as described (Fejer et al., 2005). […] Intracellular proteins were detected on immunoblots with antibodies from Pharmingen BD (IL-1α and IL-1β) and Cell Signalling (phosphorylated isophorm of p38 MAPK). […]

MPI cells = test: Cytokine response of MPI cells to microbial stimuli (ELISA, bioassay); type: cell-based, mouse
Experimental: Single cell suspensions (0.5x10^6 cells/ml) from fetal livers of 15 to 19 day-old mouse embryos or of livers of new-born mice (up to 2 weeks of age) were washed in PBS and resuspended in RPMI 1640 containing 10% fetal calf serum and supplemented with 20 ng/ml recombinant murine GM-CSF (also referred to herein as MPI medium). Rapidly proliferating cells were subcultured by splitting them 1:5 in MPI medium using cells detached with PBS/1.5 mM EDTA and floating cells in the culture. Cells proliferated more slowly after 2 weeks of culture. GM-CSF was replenished weekly and subcultures in MPI medium were made when total (attached and floating) cell density reached approximately 0.5 x 10^6 cell/ml. […]
as §1
Detection of secreted cytokines, surface antigens, intracellular proteins and enzymatic activity The following cytokines were detected with ELISA using commercially available antibody pairs or kits: mouse IL-6 (BD Bioscience), IL-1α (eBioscience), IL-1β (eBioscience) and IL-10 (eBioscience), human IL-6 (R&D Systems), IL-1α (eBioLegend) and IL-10 (BD Bioscience). […]

Substance: FSL-1
- IFN-αβ production (BMMs): neither of the cell types produced IFN-αβ
- IFN-αβ production (MPI cells; MPI cells): neither of the cell types produced IFN-αβ
- IL-6 and TNF-α levels (MPI cells; MPI cells in comparison to BMMs): higher levels
